Test results taken from patent publication US9475855B2, “Human Notch3 based fusion proteins as decoy inhibitors of Notch3 signaling” (THE TRUSTEES OF COLUMBIA UNIVERSITY IN THE CITY OF NEW YORK, priority 2008, dated 2016).
Each block holds one molecule with its values, some of them ahead of it.

How the values were obtained:
Format in all cases: cell-based, human
[1] = test system: VEGFR-3; experiment: quantitative RT-PCR of Prox1-induced Notch-target gene VEGFR-3 in HUVEC; conditions: Ad-Prox1 infected HUVEC, 24 hours
Procedure: (§1) HUVEC were infected with adenoviruses encoding LacZ, Prox1, N1Ic or N4/int-3. Compound E(cE), Presenlin inhibitor that inhibits Notch signaling, was incubated for 24 hours on either Ad-LacZ or Ad-Prox1 infected HUVEC and total RNA isolated. Quantitative RT-PCR was performed for the endothelial Notch-target genes, VEGFR-3, EphrinB2, and Hey2. The Prox-1 mediated induction of the Notch target genes, ephrinB2, VEGFR-3 and Hey2 was inhibited by the addition of the Notch signaling inhibitor Compound E. Thus, Prox1 regulates the expression of ephrinB2, VEGFR-3 and Hey2 via Notch.
as §1, with “E, as shown in FIG. 48.” for “E.”

[2] = test system: ephrinB2; experiment: quantitative RT-PCR of Prox1-induced Notch-target gene ephrinB2 in HUVEC; conditions: Ad-Prox1 infected HUVEC, 24 hours
Procedure: as §1
as §1, with “E, as shown in FIG. 48.” for “E.”

[3] = test system: Hey2; experiment: quantitative RT-PCR of Prox1-induced Notch-target gene Hey2 in HUVEC; conditions: Ad-Prox1 infected HUVEC, 24 hours
Procedure: as §1
as §1, with “E, as shown in FIG. 48.” for “E.”

[4] = test system: Notch3; experiment: quantitative RT-PCR of Prox1-induced Notch3 expression in HUVEC; conditions: Ad-Prox1 infected HUVEC, 24 hours
Procedure: (A) It was examined if extopic expression of Prox1 would alter the expression of Notch proteins or ligands. Twenty-four hours post adenoviral infection with either Ad-Prox1 or Ad-LacZ, HUVEC total RNA was isolated and quantitative RT-PCR for Notch1-4, Dll4 and Jagged1 performed. […] (B) Compound E (cE), Presenlin inhibitor that inhibits Notch signaling, was incubated for 24 hours on either Ad-LacZ or Ad-Prox1 infected HUVEC. Total RNA was isolated and quantitative PCR performed to determine Notch3 expression.
It was examined if ectopic expression of Prox1 would alter the expression of Notch proteins or ligands. […] Total RNA was isolated and quantitative RT-PCR performed to determine Notch3 expression. Prox1 induced Notch3 expression and this induction was inhibited by the addition of compound E.

[5] = test system: Ad-N1IC-transduced HUVEC; experiment: Notch-induced HUVEC budding on collagen gel
Procedure: HUVEC were transduced with either Ad-LacZ or Ad-N1IC at 40 MOI. FIGS. 23A-23C show the effect of inhibitors for receptor tyrosine kinases on Notch-induced HUVEC budding. FIG. 23A is a photograph of budding of Ad-N1IC-transduced HUVEC treated with PD166866, ZD1893 at 1 μm and SU5416 at 0.5 μm. […] FIGS. 23D-E show induction of Flt-1 expression in Ad-N1IC-transduced HUVEC. […] FIGS. 23F-G show promotion of Notch-induced HUVEC budding with P1GF stimulation. Ad-N1IC-transduced HUVEC were cultured on collagen gel with SFM, instead of complete medium, in the absence or presence of 50 ng/ml P1GF. […] FIGS. 23H-I show the effect of Flt-1 siRNA transfection on Flt1 expression. Ad-N1IC-transduced HUVEC were transfected with 200 pmol of either control (CT) or Flt-1 siRNA. […] Ad-N1IC-transduced HUVEC were transfected with either 100 or 200 pmol of siRNA and cultured on collagen gel for 2 days.
These Figures show inhibition of budding of Ad-N1IC-transduced HUVEC with treatment of matrix metallo-proteinase inhibitor GM6001. Either Ad-LacZ or Ad-N1IC-HUVEC at a MOI of 40 pfu/cell were cultured on collagen gel for 5 days in the absence or presence of GM6001 at 50 μm.
To test whether Notch signaling is down-stream of VEGF, we evaluated three distinct inhibitors for receptor tyrosine kinases, including VEGFR on N1IC-induced HUVEC budding, because three growth factors existed in complete medium (FIG. 23A-C). […] Thus, we examined whether activation of Notch signaling affected Flt1/VEGFR1 expression in HUVEC, because SU5416 inhibits both Flt1 and Flk1 kinase activity (15). […] P1GF increased the number of Ad-N1IC-HUVEC buds by 150%, compared to the absence of P1GF (FIG. 23F). Moreover, P1GF increased HUVEC buds containing multiple filopodia by 250% (FIG. 23G). […] Transfection with Flt1 siRNA inhibited budding of both Ad-N1IC- and Ad-VEGF-HUVEC to a similar extent (data not shown).

[6] = test system: HUVEC; experiment: HUVEC proliferation (CCK-8 kit); conditions: SFM with 1% FBS, 4 days (FIG. 26B)
Procedure: These Figures show proliferation of Ad-VEGF165-transduced HUVEC. HUVEC were transduced with Ad-VEGF165 at the indicated dosages. Ad-LacZ was also co-infected to make the same total amount of adenovirus at a MOI of 40 pfu/cell. HUVEC were suspended in SFM supplemented with 1% FBS and then plated at 1×10^4 cells/well in 24-well multi-wll plates with 0.4 ml of medium. After 4 days, cell numbers were determined using the CCK-8 kit and the results are indicated as the ratio of cell numbers determined to the number of control cells, which were transduced with Ad-GFP at a MOI of 40 pfu/cell. […] Ad-VEGF-transduced HUVEC were treated with SU5416 at the indicated dosages.
These Figures show the effect of alteration of Notch signaling on cell proliferation. The cells were transduced with the indicated adenoviruses. Ad-GFP was also co-infected to make the same total amount of adenovirus at a MOI of 60 pfu/cell. After 4 days, cell numbers were determined using the CCK-8 kit and results are indicated as the ratio of cell numbers determined to the number of control cells, which were transduced with AD-GFP at MOI of 60 pfu/cell. […] Transduced HUVEC were suspended in complete medium and then plated at 1×10^4 cells/well in 24-well multiwell plates with 0.4 ml of indicated medium (□: Ad-N1IC; ▪: Ad-N1ECDFc). […]

[7] = test system: CBF1 promoter activity; experiment: VEGF-induced Notch signaling, CBF1 promoter (CSL-luciferase) reporter activity in HUVEC; conditions: Ad-VEGF-transduced HUVEC
Procedure: To determine VEGF-induced Notch signaling, HUVEC which were infected with adenovirus were used. HUVEC plated 1-day prior in 6 well plates at 8.0×10^5 were infected with either Ad-LacZ as control or Ad-VEGF at indicated m.o.i. in the presence or absence of Ad-N1ECD/Fc. Two days after infection, infected HUVEC were re-seeded into 24-well plate at 1.5×10^5 cell in triplicate and cultured for 24 hours, and then transfected with 12.5 ng pRL-SV40 (Promega) and 137.5 ng pGA981-6 using Effectene transfection reagent (Qiagen). Cells were harvested either 1 or 2 days post-transfection and luciferase activity was determined by using the Dual-Luciferase® Reporter Assay System (Promega).
One can measure Notch signaling function by measuring transcriptional activity of CBF1 promoter, which is activated by binding of Notch-IC to CBF1. We measured CBF1 promoter activity in HUVEC which was infected with adenovirus encoding VEGF-165 at different MOI (FIG. 6). Induction of CBF1 promoter was clearly detected in Ad-VEGF-infected HUVEC, compared to Ad-LacZ-infected cells in the MOI dependent manner. […] Thus VEGF induced Notch signaling activity.

[8] = receptor tyrosine kinase inhibitors, 1 μM, complete medium

Molecule: C[C@H](NC(=O)Cc1cc(F)cc(F)c1)C(=O)N[C@H]1N=C(c2ccccc2)c2ccccc2N(C)C1=O [Compound E]
Prox-1 mediated induction of VEGFR-3 [1]: inhibited | Prox-1 mediated induction of ephrinB2 [2]: inhibited | Prox-1 mediated induction of Hey2 [3]: inhibited | Prox1 induction of Notch3 expression [4]: inhibited

Molecule: CNC(=O)[C@H](Cc1c[nH]c2ccccc12)NC(=O)[C@@H](CC(=O)NO)CC(C)C [GM6001]
budding of Ad-N1IC-HUVEC ([5]; GM6001 at 50 μm, collagen gel, 5 days): clearly decreased | budding of Ad-N1IC-HUVEC ([5]; fibrin gel (data not shown)): clearly decreased

Molecule: COc1cc(OC)cc(-c2cc3cnc(N)nc3nc2NC(=O)NC(C)(C)C)c1 [P13166866]
budding of Ad-N1IC-HUVEC [5, 8]: Neither P13166866 or ZD1893 affected budding

VEGF-induced CBF1 promoter / CSL-luciferase reporter activity [7]: decreased
Molecule: Cc1cc(C)c(/C=C2\C(=O)Nc3ccccc32)[nH]1 [SU5416, reference compound]
proliferation of Ad-VEGF-transduced HUVEC [6]: inhibitory effect | budding of Ad-N1IC-HUVEC versus viability ([5]; lower concentrations, dose-dependency (FIG. 23C)): selectively inhibited | budding of Ad-N1IC-HUVEC [5, 8]: clearly inhibited

B1: P1GF: placental growth factor, a selective ligand for Flt1 (protein, UniProt P49763 19-221, looked up)
Placenta growth factor: LPAVPPQQWALSAGNGSSEVEVVPFQEVWGRSYCRALERLVDVVSEYPSEVEHMFSPSCVSLLRCTGCCGDENLHCVPVETANVTMQLLKIRSGDRPSYVELTFSQHVRCECRHSPGRQSPDMPGDFRADAPSFLPPRRSLPMLFRMEWGCALTGSQSAVWPSSPVPEEIPRMHPGRNGKKQQRKPLREKMKPERCGDAVPRR
increase of HUVEC buds containing multiple filopodia ([5]; 50 ng/ml P1GF, SFM): 250% | increase of the number of Ad-N1IC-HUVEC buds ([5]; 50 ng/ml P1GF, SFM, compared to the absence of P1GF): 150%
